How the values were obtained:
[1] = system: ten expert panelists; assay: Sensory Evaluation 1: oral evaluation of 10 ppm aqueous solutions; assay type: in vivo, human; set-up: key to Instantaneous sensation: ⊚: very fast; ◯: fast; Δ: is somewhat slow; x: slow; conditions: for Instantaneous sensation / Intensity: oral evaluation, 10 ppm aqueous solution, warming sensation and pungent taste, average of ten panelists; for Intensity: scale 5 very strong, 4 strong, 3 weak, 2 very weak, 1 not able to feel
Experimental: Compound A and Compound C obtained in Example 1 and Example 3, respectively, were subjected to oral evaluation using 10 ppm aqueous solutions of them by ten expert panelists having 5 or more year experience, and an instantaneous sensation and an intensity of warming sensation and pungent taste were evaluated on the basis of the following evaluation criteria. On the sensory evaluation, 4-(l-methoxymethyl)-2-(3′-methoxy-4′-hydroxyphenyl)-1,3-dioxolan (Comparative compound A: the compound described in JP-A-8-225564) was used as a comparative compound. The evaluation results in the table show the average value of ten panelists.

[2] = system: skin; assay: warm sensation and stimulating effect on the skin; assay type: in vivo, human

Row | SMILES | pungent and warming effect in the mouth [1] | Instantaneous sensation [1] | Intensity [1] | warm sensation and stimulating effect on the skin [2]
1 | COCC1COC(c2ccc(O)c(OC)c2)O1 (stereo not drawn) [Comparative compound A, 4-(l-methoxymethyl)-2-(3′-methoxy-4′-hydroxyphenyl)-1,3-dioxolan, reference compound] | strong pungent and warming effect in the mouth | Δ | 2.8 | strong warm sensation and stimulating effect on the skin
2 | CCCCC1COC(c2ccc(O)c(OC)c2)O1 (stereo not drawn) [Compound A, vanillin-1,2-hexylene glycol acetal] | strong pungent and warming effect in the mouth | ⊚ | 4.5 | strong warm sensation and stimulating effect on the skin
3 | CCCCOCC1COC(c2ccc(O)c(OC)c2)O1 (stereo not drawn) [Compound C, vanillin-1-butoxyglycerol acetal] | strong pungent and warming effect in the mouth | ⊚ | 4.2 | strong warm sensation and stimulating effect on the skin

From patent publication US8735446B2, “Vanillin acetals and sensory stimulant composition containing the same” (Takasago International Corporation, priority 2005, dated 2014)
